Laboratory results published in the supplement of paper PMC6045584.
± gives the standard deviation of the averaged measurements.

What was measured:
FLUOROURACIL = compound: O=c1[nH]cc(F)c(=O)[nH]1 [FLUOROURACIL]; experiment: surviving fraction relative to DMSO-only wells; higher = less growth inhibition; conditions: exposure time: 5 days
Method in brief: (§1)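 For each tumour cell line, log-phase cells were put into 384-well plates at 250–500 cells per well, then after 24 hours exposed continuously for five days to inhibitors at 0.5, 1, 5, 10, 50, 100, 500 and 1000 nM. Viability was assessed by CellTiter-Glo luminescence, with surviving fraction expressed relative to the median of DMSO-only wells. Lines were screened three times and retained only if replicate Pearson r exceeded 0.7 and median Z' exceeded 0.3.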

FLAVOPIRIDOL = compound: CN1CC[C@H](c2c(O)cc(O)c3c(=O)cc(-c4ccccc4Cl)oc23)[C@H](O)C1 [FLAVOPIRIDOL]; experiment: as above; conditions: exposure time: 5 days
Method in brief: as §1

Row | Test System | surviving fraction (FLUOROURACIL; 0.5 nM) | surviving fraction (FLUOROURACIL; 1 nM) | surviving fraction (FLUOROURACIL; 5 nM) | surviving fraction (FLUOROURACIL; 10 nM) | surviving fraction (FLUOROURACIL; 50 nM) | surviving fraction (FLUOROURACIL; 100 nM) | surviving fraction (FLUOROURACIL; 500 nM) | surviving fraction (FLUOROURACIL; 1000 nM) | surviving fraction (FLAVOPIRIDOL; 0.5 nM) | surviving fraction (FLAVOPIRIDOL; 1 nM) | surviving fraction (FLAVOPIRIDOL; 5 nM) | surviving fraction (FLAVOPIRIDOL; 10 nM) | surviving fraction (FLAVOPIRIDOL; 50 nM) | surviving fraction (FLAVOPIRIDOL; 100 nM) | surviving fraction (FLAVOPIRIDOL; 500 nM) | surviving fraction (FLAVOPIRIDOL; 1000 nM)
1 | CCK81 LARGE INTESTINE | 0.849 ± 0.12 | 0.804 ± 0.081 | 0.764 ± 0.086 | 0.835 ± 0.13 | 0.851 ± 0.079 | 0.751 ± 0.075 | 0.775 ± 0.042 | 0.609 ± 0.084 | 0.883 ± 0.13 | 0.817 ± 0.082 | 0.785 ± 0.15 | 0.813 ± 0.1 | 0.416 ± 0.062 | 0.0273 ± 0.011 | 0.0177 ± 0.0015 | 0.0203 ± 0.00058
2 | G292 BONE | 0.993 ± 0.028 | 0.965 ± 0.051 | 1.02 ± 0.037 | 1.01 ± 0.03 | 0.994 ± 0.051 | 0.939 ± 0.027 | 0.941 ± 0.017 | 0.759 ± 0.054 | 0.97 ± 0.068 | 0.987 ± 0.057 | 1.033 ± 0.0078 | 0.995 ± 0.024 | 0.628 ± 0.039 | 0.18 ± 0.0055 | 0.0742 ± 0.0043 | 0.0712 ± 0.0055
3 | HCC38 BREAST | 1.01 ± 0.2 | 0.97 ± 0.11 | 1.02 ± 0.17 | 1.11 ± 0.14 | 0.8 ± 0.092 | 0.727 ± 0.14 | 0.689 ± 0.027 | 0.644 ± 0.097 | 1.18 ± 0.1 | 1.22 ± 0.13 | 1.33 ± 0.097 | 1.34 ± 0.21 | 1.02 ± 0.15 | 0.571 ± 0.18 | 0.046 ± 0.0053 | 0.0423 ± 0.0093
4 | HCC70 BREAST | 1.06 ± 0.054 | 1.08 ± 0.12 | 1.14 ± 0.083 | 1.12 ± 0.028 | 1.04 ± 0.092 | 1.03 ± 0.06 | 0.778 ± 0.047 | 0.735 ± 0.053 | 1.03 ± 0.06 | 1.02 ± 0.11 | 1.06 ± 0.1 | 1.01 ± 0.11 | 0.784 ± 0.1 | 0.129 ± 0.078 | 0.0557 ± 0.032 | 0.0423 ± 0.019
5 | HMLE3 BREAST | 1.05 ± 0.097 | 1.11 ± 0.03 | 1.09 ± 0.15 | 1.13 ± 0.043 | 1.06 ± 0.091 | 0.955 ± 0.065 | 0.838 ± 0.034 | 0.702 ± 0.15 | 1.07 ± 0.088 | 0.951 ± 0.097 | 1.16 ± 0.087 | 1.11 ± 0.097 | 0.771 ± 0.074 | 0.131 ± 0.029 | 0.026 ± 0.0036 | 0.0233 ± 0.0015
6 | HMT3552 BREAST | 0.951 ± 0.044 | 0.925 ± 0.085 | 0.976 ± 0.08 | 0.85 ± 0.048 | 1.01 ± 0.036 | 0.89 ± 0.02 | 0.939 ± 0.1 | 0.536 ± 0.033 | 1.06 ± 0.041 | 1.05 ± 0.045 | 0.986 ± 0.071 | 0.963 ± 0.027 | 0.232 ± 0.019 | 0.068 ± 0.0027 | 0.066 ± 0.003 | 0.061 ± 0.0027
7 | HS578T BREAST | 0.839 ± 0.2 | 1.04 ± 0.043 | 0.904 ± 0.054 | 0.856 ± 0.1 | 0.902 ± 0.19 | 0.817 ± 0.15 | 0.793 ± 0.071 | 0.708 ± 0.041 | 1.13 ± 0.054 | 1.21 ± 0.13 | 1.19 ± 0.29 | 1.21 ± 0.2 | 0.667 ± 0.08 | 0.0923 ± 0.01 | 0.068 ± 0.0036 | 0.0673 ± 0.0025
